≈ marks a conversion by molar mass, not a printed value. Entries after “also recorded” stand apart in the source; their conditions may differ. Where two headings read alike, the source gives them in different places.
Assays:
[1] = test system: human mitochondrial LeuRS; parameters: method as in PMID 28953378; conditions: cited from earlier work
[2] = test system: mycobacterial LeuRS; parameters: method as in PMID 28953378; conditions: cited from earlier work
[3] = test system: tuberculosis; parameters: method as in PMID 28953378; conditions: cited from earlier work
[4] = test system: human cytoplasmic LeuRS; parameters: method as in PMID 28953378; conditions: cited from earlier work
[5] = molecular target: T1, M. tuberculosis leucyl-tRNA synthetase (LeuRS) (Mycobacterium tuberculosis, UniProt P9WFV1); experiment: biochemical; type: biochemical
T1 construct: made in house; host or cells: Escherichia coli
T1 sequence (P9WFV1 whole entry): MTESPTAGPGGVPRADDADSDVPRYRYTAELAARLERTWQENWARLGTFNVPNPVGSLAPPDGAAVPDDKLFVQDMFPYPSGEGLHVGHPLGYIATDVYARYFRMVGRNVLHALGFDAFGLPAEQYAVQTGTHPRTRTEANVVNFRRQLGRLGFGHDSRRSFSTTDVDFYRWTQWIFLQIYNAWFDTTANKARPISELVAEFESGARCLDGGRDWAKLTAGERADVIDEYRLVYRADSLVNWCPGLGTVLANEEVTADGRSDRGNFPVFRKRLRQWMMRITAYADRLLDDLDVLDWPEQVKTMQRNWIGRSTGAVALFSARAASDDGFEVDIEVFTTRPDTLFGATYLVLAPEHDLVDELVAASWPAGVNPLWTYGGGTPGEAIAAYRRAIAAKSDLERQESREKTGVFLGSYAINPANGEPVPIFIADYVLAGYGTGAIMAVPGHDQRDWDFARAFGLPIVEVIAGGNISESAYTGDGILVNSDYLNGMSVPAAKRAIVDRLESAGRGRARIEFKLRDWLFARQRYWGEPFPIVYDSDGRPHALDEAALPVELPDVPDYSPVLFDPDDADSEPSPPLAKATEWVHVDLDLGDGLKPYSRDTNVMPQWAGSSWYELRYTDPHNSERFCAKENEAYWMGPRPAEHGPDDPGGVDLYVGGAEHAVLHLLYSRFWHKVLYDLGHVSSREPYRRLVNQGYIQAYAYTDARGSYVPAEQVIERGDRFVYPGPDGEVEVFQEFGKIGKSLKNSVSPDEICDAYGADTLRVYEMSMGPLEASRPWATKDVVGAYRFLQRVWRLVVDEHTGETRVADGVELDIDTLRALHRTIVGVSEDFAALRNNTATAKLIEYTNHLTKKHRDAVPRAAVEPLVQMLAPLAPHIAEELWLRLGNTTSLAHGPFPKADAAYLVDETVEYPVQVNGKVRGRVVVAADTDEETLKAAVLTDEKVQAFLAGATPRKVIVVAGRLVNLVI

[6] = molecular target: T2, M. tuberculosis methionyl-tRNA synthetase (MetRS) (Mycobacterium tuberculosis, UniProt P9WFU5); experiment: biochemical; type: biochemical; conditions: for IC50: mean ± s.d. (n = 3)
T2 construct: made in house; host or cells: Escherichia coli
T2 sequence (P9WFU5 whole entry): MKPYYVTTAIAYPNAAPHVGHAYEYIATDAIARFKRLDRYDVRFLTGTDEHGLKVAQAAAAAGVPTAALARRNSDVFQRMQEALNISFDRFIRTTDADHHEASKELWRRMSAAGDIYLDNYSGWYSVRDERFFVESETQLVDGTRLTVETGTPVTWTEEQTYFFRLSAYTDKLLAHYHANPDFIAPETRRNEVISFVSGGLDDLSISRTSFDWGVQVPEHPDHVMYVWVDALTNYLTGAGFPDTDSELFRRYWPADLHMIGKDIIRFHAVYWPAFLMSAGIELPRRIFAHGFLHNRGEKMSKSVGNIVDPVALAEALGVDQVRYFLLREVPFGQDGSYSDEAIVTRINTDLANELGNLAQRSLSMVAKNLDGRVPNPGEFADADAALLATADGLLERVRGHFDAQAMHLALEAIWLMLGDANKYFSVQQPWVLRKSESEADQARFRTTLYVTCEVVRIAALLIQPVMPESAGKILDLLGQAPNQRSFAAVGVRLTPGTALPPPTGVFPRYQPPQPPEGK

[7] = test system: Mycobacterium avium (ATCC 700,891 MAC 101); experiment: microbe, parasite or virus in culture; type: cell-based; conditions: > 80% reduction in growth, screened at 20, 2 and 0.2 mg/L, 7H9 complete medium; for MIC: Mycobacterium avium, ATCC700, read-out: Growth inhibition cutoff, M. avium 700,891 (MAC 101)
[8] = test system: Mycobacterium abscessus (ATCC 19,977); experiment: microbe, parasite or virus in culture; type: cell-based; conditions: > 80% reduction in growth, screened at 20, 2 and 0.2 mg/L, 7H9 complete medium; for MIC: Mycobacteroides abscessus, ATCC19, read-out: Growth inhibition cutoff, M. abscessus 19,977
[9] = test system: M. tuberculosis H37Rv; experiment: microbe, parasite or virus in culture; type: cell-based; conditions: > 80% reduction in growth, screened at 20, 2 and 0.2 mg/L, 7H9 complete medium; for MIC: Mycobacterium tuberculosis, H37RV, read-out: Growth inhibition cutoff, H37Rv
[10] = MTT cytotoxicity assay, HepG2; type: cell-based, human; conditions: human, hepg2 cells, read-out: CC50, concentration to cause 50% cytotoxicity
Procedure: (§1) We have tested compound 27 for cytotoxicity toward human cell lines HEK293 (human embryonic kidney 293) and HepG2 (human hepatocellular carcinoma cell line) using standard MTT assay.
(§2) Compound cytotoxicity was determined by standard MTT assay[37] using human embryonic kidney 293 (HEK293) and human hepatocellular carcinoma (HepG2) cell lines according to the method described previously. HEK 293 cell line was obtained from the Russian Cell Culture Collection (Institute of Cytology of the Russian Academy of Science, St.Petersburg, Russia) and HepG2 – from the Bank of Cell Lines from human and animal tissue (R. E. Kavetsky Institute of Experimental Pathology, Oncology and Radiobiology, NAS of Ukraine, Kyiv, Ukraine).

[11] = test system: HepG2 (human hepatocellular carcinoma cell line); experiment: MTT cytotoxicity assay, HepG2; type: cell-based; conditions: 3.125 µM to 50 µM
Procedure: as §1, §2

[12] = test system: HEK293 (human embryonic kidney 293); experiment: MTT cytotoxicity assay, HEK293; type: cell-based; conditions: 3.125 µM to 50 µM
Procedure: as §1, §2

[13] = MTT cytotoxicity assay, HEK293; type: cell-based, human; conditions: human, hek293 cells, read-out: CC50, concentration to cause 50% cytotoxicity
Procedure: as §1, §2

[14] = test system: M. tuberculosis H37Rv; experiment: microbe, parasite or virus in culture; type: cell-based, Mycobacterium tuberculosis; conditions: read-out: 2-week MIC
[15] = test system: M. tuberculosis; parameters: method as in PMID 31691918; conditions: earlier identified hit; cited from earlier work
[16] = molecular target: T2, M. tuberculosis methionyl-tRNA synthetase (MetRS); parameters: method as in PMID 31691918; conditions: from the previous article ref 22; cited from earlier work
[17] = molecular target: T1, M. tuberculosis leucyl-tRNA synthetase (LeuRS); parameters: method as in PMID 31691918; conditions: from the previous article ref 22; cited from earlier work
[18] = test system: Staphylococcus aureus MetRS; parameters: method as in PMID 19015366; conditions: S. aureus MetRS versus human mitochondrial MetRS; cited from earlier work
[19] = recombinant enzyme, mean ± spread (n in brackets), negative = activation

Structure (SMILES) | LeuRS inhibition activity, % [5, 19] | MetRS inhibition activity, % [6, 19] | Growth inhibition cutoff, M. avium 700,891 (MAC 101) [7] [mg/L] | Growth inhibition cutoff, M. abscessus 19,977 [8] [mg/L] | Growth inhibition cutoff, H37Rv [9] [mg/L] | further results
NC[C@H]1OB(O)c2c(OCCO)ccc(Cl)c21 [GSK656, (S)-3-(Aminomethyl)-4-chloro-7-(2-hydroxyethoxy) benzo [c][1, 2] oxaborol-1 (3 H)-ol] |  |  |  |  |  | IC50 [1]: > 300 µM; IC50 [2]: 0.2 µM; efficacy in an animal model of tuberculosis [3]: effective; IC50 [4]: > 300 µM
CCOc1ccc(-c2noc(-c3nnn(-c4ccccc4Cl)c3N)n2)cc1 [Compound 40] | 36 ± 16 (3) % | 22 ± 14 (2) % | > 20 | > 20 | > 20 | 
Nc1c(-c2nc(-c3ccccc3)no2)nnn1-c1ccc(C(F)(F)F)c(Cl)c1 [Compound 2] |  |  |  |  |  | LeuRS inhibition activity, % [5]: 32 ± 19 (3) %; IC50 ([5]; mean ± s.d. (n = 3)): 76.5 ± 66 µM; MetRS inhibition activity, % [6]: 71 ± 29 (2) %; IC50 [6]: 115 ± 3 µM; MIC [7]: > 20 µg/mL; MIC [8]: > 20 µg/mL; MIC [9]: > 20 µg/mL
CCc1ccc(-n2nnc(-c3nc(-c4ccc(F)cc4)no3)c2N)cc1 [Compound 14] | 31 ± 7 (2) % | 41 ± 10 (3) % | > 20 | > 20 | > 20 | 
COc1cccc(-n2nnc(-c3nc(-c4ccc(F)cc4)no3)c2N)c1 [Compound 20] | 29 ± 25 (2) % | 37 ± 17 (3) % | > 20 | > 20 | > 20 | 
COc1ccc(Cl)cc1-n1nnc(-c2nc(-c3ccc(F)cc3)no2)c1N [Compound 27] |  |  |  |  |  | LeuRS inhibition activity, % [5]: 14 ± 12 (2) %; MetRS inhibition activity, % [6]: 57 ± 11 (3) %; IC50 [6]: 148 ± 33.2 µM; CC50 [10]: > 50 µM; cytotoxicity / effect on cell viability [11]: did not affect cell viability; also recorded: not cytotoxic; cytotoxicity / effect on cell viability [12]: did not affect cell viability; also recorded: not cytotoxic; CC50 [13]: > 50 µM; MIC [7]: > 20 µg/mL; MIC [8]: > 20 µg/mL; MIC [9]: > 20 µg/mL; MIC ([14]; Mycobacterium tuberculosis, H37RV, 336 h): 25 µM (≈ 9.67 µg/mL); MIC [14]: > 50 µM
COc1ccc(-n2nnc(-c3nc(-c4ccc(F)cc4)no3)c2N)cc1Cl [Compound 17, 3-(3-chloro-4-methoxy-phenyl)-5-[3-(4-fluoro-phenyl)-[1,2,4]oxadiazol-5-yl]-3H-[1,2,3]triazol-4-ylamine] | 51 ± 28 (2) % | 77 ± 3 (2) % | > 20 | > 20 | > 20 | antibacterial activity toward M. tuberculosis [15]: does not have antibacterial activity; IC50 [16]: 13.8 µM; IC50 [17]: 13 µM
Nc1c(-c2nc(-c3ccc(F)cc3)no2)nnn1-c1ccccc1 [Compound 9] | 1 ± 8 (2) % | 30 ± 2 (2) % | > 20 | > 20 | > 20 | 
C=C(F)c1sc(CNCCCNc2cc(O)c3ccccc3n2)c(C)c1Br [REP8839] |  |  |  |  |  | affinity for the bacterial enzyme relative to human mitochondrial MetRS [18]: 1000 fold
Nc1c(-c2nc(-c3ccc(F)cc3)no2)nnn1-c1ccc(F)cc1 [Compound 12] | 3 ± 7 (2) % | 52 ± 6 (2) % | > 20 | > 20 | > 20 | 
Nc1c(-c2nc(-c3ccc(Cl)cc3)no2)nnn1-c1ccc(Br)cc1F [Compound 31] | 15 ± 11 (2) % | 70 ± 19 (2) % | > 20 | > 20 | > 20 | 

Source: paper PMC8010095, “Discovery of novel antituberculosis agents among 3-phenyl-5-(1-phenyl-1H-[1,2,3]triazol-4-yl)-[1,2,4]oxadiazole derivatives targeting aminoacyl-tRNA synthetases” (Scientific Reports, 2021)
